Experimental data taken from patent publication US20240270762A1, “PENICILLIN-BINDING PROTEIN INHIBITORS” (priority 2021, published 2024).
Converted amounts (≈) assume the structure as drawn.

Columns and labels:
P. aeruginosa CDC-0090 = test: microbe, parasite or virus in culture; format: cell-based; details: Pseudomonas aeruginosa, CDC0090, read-out: Minimum inhibitory concentration, P. aeruginosa CDC-0090
A. baumannii CDC-0033 = test: microbe, parasite or virus in culture; format: cell-based; details: Acinetobacter baumannii, CDC0033, read-out: MIC, A. baumannii CDC-0033
A. baumannii ATCC 17978 = test: microbe, parasite or virus in culture; format: cell-based; details: Acinetobacter baumannii, ATCC17978, read-out: MIC, A. baumannii ATCC 17978
A. baumannii ATCC 19606 = test: microbe, parasite or virus in culture; format: cell-based; details: Acinetobacter baumannii, ATCC19606, read-out: MIC, A. baumannii ATCC 19606
A. baumannii 1258916 = test: microbe, parasite or virus in culture; format: cell-based, Acinetobacter baumannii; details: Acinetobacter baumannii, 1258916, read-out: MIC, A. baumannii 1258916
[1] = system: B. thailandensis ATCC 700388; test: microbe, parasite or virus in culture; format: cell-based; details: Burkholderia thailandensis, ATCC700388, read-out: Minimum inhibitory concentration (MIC), B. thailandensis ATCC 700388
[2] = target: T1, PBP3 from Acinetobacter baumannii (ATCC 19606) (Acinetobacter baumannii, UniProt A0ABX6CK25); test: Bocillin-FL fluorescence polarization competition binding, A. baumannii PBP3; details: fluorescence polarization competition binding assay using Bocillin-FL; read-out: A. baumannii PBP3 Potency
T1 sequence (A0ABX6CK25 64-610): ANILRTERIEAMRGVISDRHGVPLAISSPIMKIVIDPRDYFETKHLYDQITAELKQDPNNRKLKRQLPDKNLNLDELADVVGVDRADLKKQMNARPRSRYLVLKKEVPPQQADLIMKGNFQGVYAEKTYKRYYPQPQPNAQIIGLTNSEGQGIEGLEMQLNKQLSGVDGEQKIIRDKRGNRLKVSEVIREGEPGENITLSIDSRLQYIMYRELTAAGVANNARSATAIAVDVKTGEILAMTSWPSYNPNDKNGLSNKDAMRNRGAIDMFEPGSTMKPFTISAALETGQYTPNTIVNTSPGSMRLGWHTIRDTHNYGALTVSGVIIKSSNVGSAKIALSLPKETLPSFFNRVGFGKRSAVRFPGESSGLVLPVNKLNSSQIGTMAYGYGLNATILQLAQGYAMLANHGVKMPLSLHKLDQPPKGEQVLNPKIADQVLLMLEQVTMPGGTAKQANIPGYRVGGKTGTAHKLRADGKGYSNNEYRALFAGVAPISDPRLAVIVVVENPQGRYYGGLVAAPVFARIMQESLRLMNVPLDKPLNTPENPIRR
From the text: To determine the ability of boronic acid-based test PBP inhibitors to bind Penicillin Binding Proteins (PBPs), Bocillin-FL (fluorescently-labeled penicillin V; ThermoFisher Scientific) was used in a fluorescence polarization (FP) competition binding assay to assess inhibitor binding to PBP3 from Escherichia coli (K-12), PBP3 from Pseudomonas aeruginosa (PAO1), PBP1a and PBP3 from Acinetobacter baumannii (ATCC 19606), and PBP2 from Neisseria gonorrhoeae (FA19). PBPs were cloned and purified as described previously (E. coli PBP3, King, D. T, et al., ACS Infectious Diseases 2015, 1, 175-184; P. aeruginosa PBP3, Han et. al., PNAS 2010, 107 (51), 22002-22007; A. baumannii PBPs, Penwell et. al., Antimicrob. Agents Chemother. 2015, 59 (3), 1680-1689; N. gonorrhoeae PBP2, Singh et. al., J. Biol. Chem. 2019, 294 (38), 14020-14032). To establish assay conditions for competition binding, enzyme titration/saturation binding experiments were initially performed. Bocillin-FL was prepared at 0.2 μM in a buffer comprised of 50 mM Hepes (pH 8.0), 300 mM NaCl and 10% (v/v) glycerol for reactions with E. coli, P. aeruginosa and N. gonorrhoeae PBPs, and 25 mM Tris (pH 8.0), 200 mM NaCl, 10% (v/v) glycerol and 0.005% (v/v) Tween 20 for reactions with A. baumannii PBPs. Saturation binding was performed by mixing 40 μl of PBP solutions ranging in concentrations from 0-24 μM with 40 μl of the 0.2 μM Bocillin-FL solution, in individual wells of a black 384-well microplate. FP was measured immediately upon mixing (Excitation, 490 nm; Emission, 520 nm; g-factor, 0.96), using a Cytation3 (BioTek) microplate reader and measured continuously for up to 120 minutes. The FP response stabilized after 15 minutes for P. aeruginosa and A. baumannii PBP3, 30 minutes for E. coli PBP3 and A. baumannii PBP1a, and less than 1 minute for N. gonorrhoeae PBP2. […] The competition binding assay (80 μl final volume) was validated using beta-lactams and PBPs at final concentrations of: 1.5 μM for E. coli PBP3; 0.75 μM for P. aeruginosa PBP3; 1 μM for A. baumannii PBP1a; 0.2 μM for A. baumannii PBP3; and 0.25 μM for N. gonorrhoeae PBP2. Bocillin-FL was at 0.1 μM (0.05 μM with A. baumannii PBP1a) and beta-lactam concentrations ranged from 0-1,000 μM. E. coli PBP3 was incubated with increasing concentrations of ampicillin in a black 384-well microplate (Corning) for 30 minutes. P. aeruginosa PBP3 was incubated for 15 minutes with aztreonam, whereas A. baumannii PBP1a and PBP3 were incubated for 15 minutes with meropenem, and then Bocillin-FL was added followed immediately by the FP measurement for up to 60 minutes. […] The beta-lactam potency was reported as the concentration of beta-lactam required to reduce the amount of PBP bound-Bocillin-FL by 50% (EC50). […] The EC50 of aztreonam was determined to be <0.5 μM for P. aeruginosa PBP3. […] Binding assays for boronic acid PBP inhibitors were performed in an identical fashion for the respective PBPs.

[3] = system: B. humptydooensis ATCC BAA-2767; test: microbe, parasite or virus in culture; format: cell-based; details: Burkholderia humptydooensis, ATCCBAA2767, read-out: Minimum inhibitory concentration (MIC), B. humptydooensis ATCC BAA-2767
P. aeruginosa CDC-0095 = test: microbe, parasite or virus in culture; format: cell-based; details: Pseudomonas aeruginosa, CDC0095, read-out: Minimum inhibitory concentration, P. aeruginosa CDC-0095
P. aeruginosa CDC-0110 = test: microbe, parasite or virus in culture; format: cell-based; details: Pseudomonas aeruginosa, CDC0110, read-out: Minimum inhibitory concentration, P. aeruginosa CDC-0110
A. baumannii CDC-0045 = test: microbe, parasite or virus in culture; format: cell-based; details: Acinetobacter baumannii, CDC0045, read-out: MIC, A. baumannii CDC-0045
A. baumannii CDC-0083 = test: microbe, parasite or virus in culture; format: cell-based; details: Acinetobacter baumannii, CDC0083, read-out: MIC, A. baumannii CDC-0083
P. aeruginosa ATCC 27853 = test: microbe, parasite or virus in culture; format: cell-based; details: Pseudomonas aeruginosa, ATCC27853, read-out: Minimum inhibitory concentration, P. aeruginosa ATCC 27853
[4] = system: P. aeruginosa (ΔmexAB-oprM); test: Broth microdilution MIC in iron-depleted CAMHB (IDM); format: cell-based; details: Pseudomonas aeruginosa, read-out: Minimum inhibitory concentration, P. aeruginosa ΔmexAB-oprM
A. baumannii CDC-0036 = test: microbe, parasite or virus in culture; format: cell-based; details: Acinetobacter baumannii, CDC0036, read-out: MIC, A. baumannii CDC-0036
P. aeruginosa CDC-0054 = test: microbe, parasite or virus in culture; format: cell-based; details: Pseudomonas aeruginosa, CDC0054, read-out: Minimum inhibitory concentration, P. aeruginosa CDC-0054
P. aeruginosa ATCC 35151 = test: microbe, parasite or virus in culture; format: cell-based; details: Pseudomonas aeruginosa, ATCC35151, read-out: Minimum inhibitory concentration, P. aeruginosa ATCC 35151

Molecule `O=C(O)c1c(F)ccc2c1OB(O)[C@@H](NC(=O)[C@@H](NC(=O)N1CCN(Cc3ccc(O)c(O)c3Cl)C(=O)C1=O)c1ccc(P(=O)(O)O)cc1)C2` (single isomer, unassigned) [Example 161] has an MIC (P. aeruginosa CDC-0090) of over 128 µg/mL, an MIC (A. baumannii CDC-0033) of 8 to 16 µg/mL (≈ 10.9 to 21.8 µM) and an MIC (A. baumannii ATCC 17978) of under 1 µg/mL. The MIC (A. baumannii ATCC 19606) was under 1 µg/mL, the MIC (A. baumannii 1258916) was over 128 µg/mL and the MIC [1] was under 1 µg/mL. It also gave an IC50 [2] of under 10 µM, an MIC [3] of under 1 µg/mL and an MIC (P. aeruginosa CDC-0095) of under 1 µg/mL. For the same molecule, the MIC (P. aeruginosa CDC-0110) was under 1 µg/mL, the MIC (A. baumannii CDC-0045) was over 128 µg/mL and the MIC (A. baumannii CDC-0083) was 8 to 16 µg/mL (≈ 10.9 to 21.8 µM). The MIC (P. aeruginosa ATCC 27853) was 2 to 4 µg/mL (≈ 2.72 to 5.44 µM), the MIC [4] was 2 to 4 µg/mL (≈ 2.72 to 5.44 µM) and the MIC (A. baumannii CDC-0036) was over 128 µg/mL. For the same molecule, the MIC (P. aeruginosa CDC-0054) was under 1 µg/mL and the MIC (P. aeruginosa ATCC 35151) was under 1 µg/mL.
